{"source": "paper PMC11984586", "about": "“A novel spider toxin as a selective antagonist of the Kv1 subfamily of voltage-gated potassium channels through gating modulation” (The Journal of Biological Chemistry, 2025)", "format_in_all_cases": "cell-based", "key": {"Kv1.3/I341A": {"biological_target": "T1, Kv1.3/I341A (Homo sapiens, UniProt P22001, I341A)", "T1 construct": "expressed in transfected cells; host or cells: CHO-K1", "T1 sequence (P22001 whole entry I341A, the tested form may be a part)": "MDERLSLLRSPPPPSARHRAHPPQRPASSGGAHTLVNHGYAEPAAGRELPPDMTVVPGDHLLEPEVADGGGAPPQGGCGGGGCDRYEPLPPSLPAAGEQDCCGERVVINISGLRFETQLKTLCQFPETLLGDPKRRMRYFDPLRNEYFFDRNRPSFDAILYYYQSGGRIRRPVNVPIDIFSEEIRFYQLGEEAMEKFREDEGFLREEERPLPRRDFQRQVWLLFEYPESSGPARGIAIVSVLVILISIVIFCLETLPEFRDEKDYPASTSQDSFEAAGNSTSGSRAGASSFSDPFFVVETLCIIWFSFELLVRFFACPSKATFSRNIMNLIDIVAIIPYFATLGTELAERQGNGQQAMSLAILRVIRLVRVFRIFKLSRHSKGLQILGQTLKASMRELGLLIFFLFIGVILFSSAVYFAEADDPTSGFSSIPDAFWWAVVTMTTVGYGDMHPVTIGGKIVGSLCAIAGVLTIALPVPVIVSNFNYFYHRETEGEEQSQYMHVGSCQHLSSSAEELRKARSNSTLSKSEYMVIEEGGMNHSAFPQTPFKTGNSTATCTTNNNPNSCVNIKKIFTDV", "assay": "Whole-cell patch clamp, Kv1.3 alanine mutant", "description": "(§1) MrVIII inhibits Kv1 channels by stabilizing the voltage sensor in its resting state. […] To investigate this hypothesis, we constructed a series of alanine mutants in the S3-S4 region of the Kv1.3 channel, covering residues I336 to L363, to identify critical interactions between the peptide and the channel (Fig. 6A). […] For the remaining mutants that retained functional current expression, we evaluated the inhibitory activity of 100 nM MrVIII. […] The lack of conserved multiple interaction sites may explain the absence of activity on other Kv subfamily channels (Fig. S3). In summary, this study identified key amino acid residues in the S3-S4 region of the Kv1.3 channel that interact with MrVIII, providing a foundation for further exploration into the peptide's mechanism of action.\n(§2) The cDNA of hKv1.1, hKv1.2, hKv1.3, rKv1.4, hKv1.5, mKv1.6, and hKv1.7 were subcloned into mammalian expression vectors pcDNA3.1 or pCMV-blank vectors, as well as other plasmids described previously ([35]). Channel mutants were generated by site-directed mutations. Briefly, the parental channel plasmid was amplified using a pair of oppositely directed primers harboring the designed mutation site, with KOD Fx (TOYOBO Co, Ltd). The resulting PCR mix was treated with FastDigest DpnI (Thermo Fisher Scientific) to remove the methylated template. Ten microliters of the digested product was then used to transform 100 μl E. coli DH5α competent cells. Transformants were randomly picked and sequenced to confirm the presence of the intended mutation.\n(§3) CHO-K1 cells were selected for expressing Kv channels due to their lack of endogenous Kv channels, while HEK293 or ND7/23 cells were used for Nav and Cav channel expression. CHO-K1 cells were cultured in a Dulbecco's modified Eagle's medium/Ham's F-12 nutrient mixture (DMEM-F12) medium, and HEK293T and ND7/23 cells in DMEM medium, all supplemented with 10% fetal bovine serum and 1% penicillin-streptomycin (all from Gibco, Thermo Fisher Scientific, Inc) under standard conditions (37 °C, 5% CO2, and saturated humidity). These cell lines were purchased from Stem Cell Bank, Chinese Academy of Sciences. Channel plasmids were cotransfected with pEGFP-N1 (encoding GFP) into the respective cells using lipofectamine 2000, following the manufacturer's instructions (Invitrogen, Thermo Fisher Scientific, Inc.). Nav1.9-GFP plasmid was transfected into ND7/23 using the X-tremeGENE HP DNA Transfection Reagent (Roche). After 4 to 6 h transfection, cells were seeded onto poly-lysine–coated coverslips, and 24 to 36 h later, transfected cells were ready for patch-clamp analysis.\n(§4) Patch clamp experiments were conducted using an electrophysiology platform comprising a MultiClamp 700B amplifier and an Axon Digidata 1550 AD/DA convertor (Axon Instruments). Data acquisition was performed with pClamp 10.5 software (Axon Instruments). All experiments were performed at room temperature.\n(§5) For Kv current recordings, the bath solution contained (in mM) the following: 140 NaCl, 5 KCl, 1 MgCl2, 2 CaCl2, 10 glucose, and 10 Hepes (pH 7.3, adjusted with NaOH), and the pipette solution contained (in mM) the following: 140 KCl, 2.5 MgCl2, 11 EGTA, and 10 Hepes (pH 7.3, adjusted with KOH). Series resistance was maintained below 10 MΩ and compensated to 80%. Concentration–response curves were fitted by the Hill equation to determine the toxin's potency. Whole cell conductance (G) at each depolarizing voltage (V) was determined using the equation: G = I/(V−Vrev), where I is the current amplitude, and Vrev is the reversal potential. The reversal potential for K^+ current was estimated to be −85.6 mV using the Nernst equation. G-V curves were obtained by plotting the normalized conductance as a function of V and fitted by the Boltzmann equation: y = 1/(1+ exp((Va-V)/k)), which Va is the midpoint voltage, V is the test potential, and k is the slope factor. The steady-state fast inactivation of Kv1.3 was measured using a two-pulses protocol. […]"}, "Kv1.3/E346A": {"biological_target": "T2, Kv1.3/E346A (Homo sapiens, UniProt P22001, E346A)", "T2 construct": "expressed in transfected cells; host or cells: CHO-K1", "T2 sequence (P22001 whole entry E346A)": "as the sequence (P22001 whole entry I341A, the tested form may be a part) above, with A341I, E346A counted along it", "assay": "Whole-cell patch clamp, Kv1.3 alanine mutant", "description": "as §1, §2, §3, §4, §5"}, "mKv1.6": {"biological_target": "T3, mKv1.6 (Mus musculus, UniProt Q61923)", "T3 construct": "expressed in transfected cells; host or cells: CHO-K1", "assay": "Whole-cell patch clamp, Kv1.6 ionic current in CHO-K1 cells", "conditions": "+30 mV, 500 ms, holding −80 mV, mean ± SD, n = 4–7, read-out: IC50, inhibition of Kv1.6 current (full inhibition)", "description": "as §2, with “Transformants were randomly picked and sequenced to confirm the presence of the intended mutation.” left out\nCHO-K1 cells were selected for expressing Kv channels due to their lack of endogenous Kv channels, while HEK293 or ND7/23 cells were used for Nav and Cav channel expression. […] After 4 to 6 h transfection, cells were seeded onto poly-lysine–coated coverslips, and 24 to 36 h later, transfected cells were ready for patch-clamp analysis. […]\nFor Kv current recordings, the bath solution contained (in mM) the following: 140 NaCl, 5 KCl, 1 MgCl2, 2 CaCl2, 10 glucose, and 10 Hepes (pH 7.3, adjusted with NaOH), and the pipette solution contained (in mM) the following: 140 KCl, 2.5 MgCl2, 11 EGTA, and 10 Hepes (pH 7.3, adjusted with KOH). […] The steady-state fast inactivation of Kv1.3 was measured using a two-pulses protocol. […]"}, "hKv1.3": {"biological_target": "T4, hKv1.3 (Homo sapiens, UniProt P22001)", "T4 construct": "expressed in transfected cells; host or cells: CHO-K1", "assay": "Whole-cell patch clamp, Kv1.3 ionic current in CHO-K1 cells", "conditions": "mean ± SD; for IC50: 500 ms depolarization to +30 mV from −80 mV holding, CHO-K1, room temperature", "description": "as §2, §3, §4\nFor Kv current recordings, the bath solution contained (in mM) the following: 140 NaCl, 5 KCl, 1 MgCl2, 2 CaCl2, 10 glucose, and 10 Hepes (pH 7.3, adjusted with NaOH), and the pipette solution contained (in mM) the following: 140 KCl, 2.5 MgCl2, 11 EGTA, and 10 Hepes (pH 7.3, adjusted with KOH). Series resistance was maintained below 10 MΩ and compensated to 80%. Concentration–response curves were fitted by the Hill equation to determine the toxin's potency. Whole cell conductance (G) at each depolarizing voltage (V) was determined using the equation: G = I/(V−Vrev), where I is the current amplitude, and Vrev is the reversal potential. The reversal potential for K^+ current was estimated to be −85.6 mV using the Nernst equation. G-V curves were obtained by plotting the normalized conductance as a function of V and fitted by the Boltzmann equation: y = 1/(1+ exp((Va-V)/k)), which Va is the midpoint voltage, V is the test potential, and k is the slope factor. The steady-state fast inactivation of Kv1.3 was measured using a two-pulses protocol. The cell was held at −120 mV, and a train of conditional voltages (−120–40 mV in 10 mV increments, 60 s) were applied to induce channel inactivation, followed by a +60 mV test pulse (300 ms) to assess the proportion of noninactivated channels. The sweep interval was set to 30 s. Currents at the test pulse (I) were normalized to the maximum value (Imax) and plotted as a function of the conditional voltage (V). The curve was fitted by the Boltzmann equation: I/Imax = A+(1 − A)/(1+exp ((V−Vh)/K)), where Vh is the half-maximum inactivation voltage, A represents the minimum channel availability, and k is the slope factor."}, "hKv1.1": {"biological_target": "T5, hKv1.1 (Homo sapiens, UniProt Q09470)", "T5 construct": "expressed in transfected cells; host or cells: CHO-K1", "assay": "Whole-cell patch clamp, Kv1.1 ionic current in CHO-K1 cells", "description": "as §2, §3, §4\nFor Kv current recordings, the bath solution contained (in mM) the following: 140 NaCl, 5 KCl, 1 MgCl2, 2 CaCl2, 10 glucose, and 10 Hepes (pH 7.3, adjusted with NaOH), and the pipette solution contained (in mM) the following: 140 KCl, 2.5 MgCl2, 11 EGTA, and 10 Hepes (pH 7.3, adjusted with KOH). Series resistance was maintained below 10 MΩ and compensated to 80%. […] Whole cell conductance (G) at each depolarizing voltage (V) was determined using the equation: G = I/(V−Vrev), where I is the current amplitude, and Vrev is the reversal potential. […] The steady-state fast inactivation of Kv1.3 was measured using a two-pulses protocol. […]"}, "[1]": {"conditions": "100 nM MrVIII on mutant compared with 10 nM on WT Kv1.3, +30 mV, n = 4–7"}}, "note": "Read-outs that look alike come from different tables or passages of the source. Bridge positions count the residues as written; N and C are the ends. Peptide text beside a SMILES is read from it.", "data": [{"smiles": "CC[C@H](C)[C@@H]1NC(=O)[C@H](Cc2ccc(O)cc2)NC(=O)[C@H](CCC(N)=O)NC(=O)[C@@H]2CCCN2C(=O)[C@@H]2CSSC[C@H](NC(=O)[C@H](C)NC(=O)[C@H](CO)NC(=O)[C@H](CCC(=O)O)NC(=O)[C@H](CCC(=O)O)NC(=O)[C@@H](N)[C@@H](C)O)C(=O)NCC(=O)NCC(=O)N[C@@H](Cc3ccccc3)C(=O)N[C@@H](CC(N)=O)C(=O)N[C@@H](C)C(=O)N[C@@H](CCCNC(=N)N)C(=O)N[C@H]3CSSC[C@H](NC1=O)C(=O)N[C@@H](CCCCN)C(=O)NCC(=O)N[C@@H](Cc1c[nH]c4ccccc14)C(=O)N[C@@H](CCCNC(=N)N)C(=O)N[C@@H]([C@@H](C)O)C(=O)N[C@@H](CCCCN)C(=O)N[C@@H](CCCNC(=N)N)C(=O)N[C@H](C(=O)N[C@@H](CC(C)C)C(=O)N[C@@H](CC(N)=O)C(=O)N1CCC[C@H]1C(=O)O)CSSC[C@H](NC(=O)[C@H](CCCCN)NC(=O)[C@H](Cc1c[nH]cn1)NC(=O)[C@H](CC(C)C)NC(=O)[C@@H]1CCCN1C3=O)C(=O)N2", "note": "[MrVIII] (H-TEESACGGFNARCPLHKCCPQYICKGWRTKRCLNP-OH; disulfide 6-19, 13-24, 18-32; N-terminus and C-terminus assumed)", "values": [{"measurement": "decrease of inhibitory potency vs WT Kv1.3, I341A", "setting": "Kv1.3/I341A; [1]", "result": "more than 10 fold"}, {"measurement": "IC50", "setting": "Kv1.3/I341A; +30 mV, 500 ms, mean ± SD, n = 4–6, SD, read-out: IC50, Kv1.3/I341A current", "result": "41 ± 26.3", "unit": "nM"}, {"measurement": "decrease of inhibitory potency vs WT Kv1.3, E346A", "setting": "Kv1.3/E346A; [1]", "result": "more than 10 fold"}, {"measurement": "IC50", "setting": "Kv1.3/E346A; +30 mV, 500 ms, mean ± SD, n = 4–6, SD, read-out: IC50, Kv1.3/E346A current", "result": "51.1 ± 21.1", "unit": "nM"}, {"measurement": "IC50", "setting": "mKv1.6", "result": "13.4 ± 6.7", "unit": "nM"}, {"measurement": "Va of G-V curve of Kv1.3 after toxin", "setting": "hKv1.3; 5 nM MrVIII, control Va = −26.4 ± 4.6 mV, Boltzmann fit", "result": "−27.7 ± 5.1", "unit": "mV"}, {"measurement": "Vh of steady-state inactivation of Kv1.3 after toxin", "setting": "hKv1.3; 5 nM MrVIII, control Vh = −42.2 ± 4.7 mV, two-pulse protocol", "result": "−42.5 ± 2.4", "unit": "mV"}, {"measurement": "time constant for toxin association, Kv1.3", "setting": "hKv1.3; 10 nM MrVIII, n = 6", "result": "5.4 ± 1.2", "unit": "s"}, {"measurement": "IC50", "setting": "hKv1.3; native toxin, n = 7, read-out: IC50, inhibition of Kv1.3 peak current", "result": "4.4 ± 1.1", "unit": "nM"}, {"measurement": "IC50", "setting": "hKv1.3; synthetic refolded toxin, n = 7, read-out: IC50, inhibition of Kv1.3 current", "result": "4.8 ± 1.6", "unit": "nM"}, {"measurement": "time constant for dissociation from Kv1.3", "setting": "hKv1.3; washout with bath solution after 10 nM MrVIII, n = 6", "result": "33.4 ± 8.3", "unit": "s"}, {"measurement": "inhi%(495 ms), Kv1.1 current", "setting": "hKv1.1; 10 μM (saturating), current at 495 ms, +30 mV, mean ± SD, SD", "result": "23.9 ± 18.5", "unit": "%"}, {"measurement": "inhibitory effect on Kv1.1 current at 495 ms once depolarizing voltage exceeded +40 mV", "setting": "hKv1.1; 10 μM MrVIII, I-V protocol", "result": "negligible"}, {"measurement": "inhibition at 10 µM", "setting": "hKv1.1; CHO-K1, 10 μM MrVIII, I-V protocol, holding −80 mV, mean ± SD, n = 5–7, SD, read-out: inhibition of Kv1.1 current at 50 ms at +100 mV", "result": "11.6 ± 7.9", "unit": "%"}, {"measurement": "IC50", "setting": "hKv1.1; current measured at 50 ms of a 500 ms depolarization to +30 mV, mean ± SD, n = 4–7, SD", "result": "50.9 ± 21.7", "unit": "nM"}]}]}
